A word on the IC50: it is the point on the concentration scale where inhibition reaches its midpoint. For orientation: pIC50 means −log10 of the IC50, conventionally taken in molar units.

pIC50: −log10 of the molar value. Values joined by “and” are separate entries in the source; they are usually repeats but may differ in a detail not shown here. Equal entries are not always repeated. Active and inactive are the calls of the source. No rule for the calls is given here.

The subject of the assay is P. yoelii liver stage in HepG2-A16-CD81EGFP, imaging. The assay is described as follows: Plasmodium liver-stage growth inhibition, dose response, imaging, Malaria Box, P. yoelii, HepG2-A16-CD81EGFP (AID 602156).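 Also: infected cells exposed to compound for 48 hours before fixation.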
`O=C(C1CC1)N1CCc2cc(Br)cc(S(=O)(=O)N3CCCC3)c21`: the IC50 is > 10000 nM (inactive). On to `CC(=O)N(C)C1=C(N2CCOCC2)C(=O)c2ccccc2C1=O`, for which the negative logarithm of the IC50 (pIC50) was 6.64.

Turning to `CCc1c(C#N)c(N)nc(SCC(=O)c2ccc(C)cc2)c1C#N`, the IC50 is > 10000 nM (inactive). Consider `Fc1ccc(Nc2nc(NCc3ccco3)c3ccccc3n2)cc1`, for which the negative-log IC50 (pIC50) is 7.13. Still for that read-out and setting: the value for `COC(=O)c1c(-c2c(Cl)cccc2Cl)noc1NC(=O)NN1CCCCC1` was 6.19; that for `COc1ccccc1-n1c(C=Cc2cc(Br)ccc2O)nc2ccccc2c1=O` was 5.34. Consider `Cc1ccc2[nH]c(C)c(Br)c(=O)c2c1`, for which the pIC50 is 6.60.

In the case of `CCOC(=O)C1=C(C)NC2=C(C(=O)C(C(=O)OCC)C(c3ccccc3OC)C2)C1c1cc(OC)c(OC)c(OC)c1` (stereo not drawn), the negative-log IC50 (pIC50) is 6.29. Take `CCC(=O)NC(c1ccccc1Cl)c1cc(Cl)c2cccnc2c1O` (stereo not drawn): the pIC50 is 6.00. Regarding `CCN1/C(=C/c2ccc3ccccc3[n+]2CC)Sc2sc3ccccc3c21`, the pIC50 is 8.21. Regarding `CC[C@H]1CN2CCc3cc(OC)c(OC)cc3[C@@H]2C[C@@H]1C[C@H]1NCCc2cc(OC)c(OC)cc21`, the negative logarithm of the IC50 (pIC50) was 8.13. `COc1ccc2nc(C)cc(Nc3ccc(Oc4ccc5ccccc5c4Cl)c(Cl)c3)c2c1`: the negative-log IC50 (pIC50) is 6.94. Take `CC[n+]1c(/C=C/C=C2\N(C)c3ccccc3C2(C)C)n(-c2ccccc2)c2cc(Cl)ccc21`: the pIC50 was 7.87.

Consider `CCCCCCCC[n+]1c(C)n(CC)c2cc(C(=O)OCC)ccc21`, for which the pIC50 is 6.00. Turning to `CCCCNC(=O)C(CC)Sc1nnc(-c2ccc(C)cc2)c(-c2ccc(C)cc2)n1` (stereo not drawn), the negative logarithm of the IC50 (pIC50) is 6.54. Still for that read-out and setting: for `C[C@@H]1CCC[C@@H](C[C@H]2Cc3cc(O)cc(O)c3C(=O)O2)O1` the value was 6.95; for `O=C(NC1CC1)c1ccc(CSCc2ccccc2Cl)o1`, 6.85; for `O=C(Nc1ccc(-c2nc3ccc(NC(=O)c4ccc(Br)o4)cc3[nH]2)cc1)c1ccc(Br)o1`, 6.09. Regarding `Oc1cccc2ccc[n+](CC(O)Cn3c4ccccc4c4ccccc43)c12` (stereo not drawn), the pIC50 was 6.51. Turning to `c1ccc(CSc2scnc2[P+](c2ccccc2)(c2ccccc2)c2ccccc2)cc1`, the pIC50 was 7.16. Turning to `CSc1nnc(-c2cccc([N+](=O)[O-])c2)n1Cc1ccccc1`, the negative-log IC50 (pIC50) was 5.60. `CC[n+]1cc(-c2ccc(C)cc2)sc1C=C1Sc2ccccc2N1C`: the pIC50 is 8.35. On to `Cc1ncc(CCCCN(C)C)c2c1[nH]c1ccccc12`, for which the pIC50 was 5.56. Take `COc1ccc(C(c2ccc(N(C)C)cc2)c2ccc(N(C)C)cc2)cc1`: the IC50 is > 10000 nM (inactive).

As to `CC1CC(N(C(=O)c2ccc(Cl)cc2Cl)c2ccccc2)c2ccccc2N1C(=O)c1ccc(Cl)cc1` (stereo not drawn), the pIC50 is 5.44. With `O=C1C2=C(Nc3ccccc3SC2c2ccco2)c2ccccc21` (stereo not drawn), the pIC50 is 6.95. As to `CCCCCc1c(C)c(C#N)c2nc3ccccc3n2c1NCCN(CC)CC`, the negative logarithm of the IC50 (pIC50) is 6.15. With `CCCC[n+]1ccccc1C=C1Sc2ccccc2N1CC`, the negative-log IC50 (pIC50) was 7.96. Consider `CCCCc1c(C)[nH]c2c(OC)cccc2c1=O`, for which the negative logarithm of the IC50 (pIC50) was 6.25. `CC[n+]1c(C=C2C=C(C)OC(C)=C2)sc2ccccc21`: the negative-log IC50 (pIC50) was 6.61. For `CC(C)NC(=O)c1cc(NC(=O)c2cccs2)ccc1N1CCc2ccccc2C1`, the pIC50 is 7.13. As for `CCC[n+]1cccc2ccc3cccnc3c21`, the pIC50 is 6.04. Still for that read-out and setting: the value for `c1ccc(OCCOc2ccc(Nc3c4ccccc4nc4ccccc34)cc2)cc1` was 6.25; that for `CCCCc1c(CCC)c(=N)c2ccccc2n1C` was 6.61. Take `Cc1ccc(-c2cc(C(=O)OCC(=O)c3cccc([N+](=O)[O-])c3)c3cc(C)ccc3n2)cc1`: the IC50 was > 10000 nM (inactive). `O=C(c1ccc([N+](=O)[O-])cc1)c1ccc(Cl)c(Cl)c1`: the pIC50 is 5.78. With `CCN(CC)CCCC(C)Nc1c2ccc(Cl)cc2nc2ccc(OC)cc12` (stereo not drawn), the pIC50 was 6.78. With `O=C(Nc1ccc(-c2nc3ccccc3[nH]2)cc1)c1ccc(-c2ccc(Cl)cc2)o1`, the pIC50 was 5.18. Consider `CCOC(=O)C1=C(C)NC2=C(C(=O)C(C(=O)OCC)C(c3cccc(OC)c3)C2)C1c1cc(OC)c(OC)c(OC)c1` (stereo not drawn), for which the pIC50 was 6.63. With `COc1cccc(NC(=O)Cn2c(C)c(C#N)c3ccccc32)c1`, the IC50 was > 9960 nM (inactive). In the case of `CCc1c(C)c(C#N)c2nc3ccccc3n2c1NCc1ccccc1`, the IC50 is > 9600 nM (inactive). On to `Cc1ccc(-n2c(-c3ccccc3)cc(C=NNC(=O)c3cccc(-n4c(C)ccc4C)c3)c2-c2ccccc2)cc1`, for which the negative-log IC50 (pIC50) is 7.32. As for `Cc1cccc(C(=O)NCc2n[nH]c(=S)n2-c2cccc(C(F)(F)F)c2)c1`, the IC50 was > 10000 nM (inactive). Regarding `N#Cc1ccc(NC(=O)NC2CC3CCCC(C2)N3CCc2ccccc2)cc1` (stereo not drawn), the negative-log IC50 (pIC50) is 6.30. As to `O=C1c2ccccc2-n2c1nc1ccccc1c2=O`, the pIC50 was 6.65. `Brc1ccc(Nc2nc(NCc3ccco3)c3ccccc3n2)cc1`: the pIC50 is 6.79. As to `O=C1C2=C(Nc3ccccc3SC2c2ccc(Br)cc2)c2ccccc21` (stereo not drawn), the pIC50 is 6.49. On the same count and under the same terms, the value for `CCCCNC(=O)C1CCC(CN(Cc2c(Cl)cccc2Cl)S(=O)(=O)c2ccc(Br)cc2)CC1` (stereo not drawn) was 6.91; that for `Nc1ccc(-c2nc3cc(Oc4ccc(Oc5ccc6[nH]c(-c7ccc(N)cc7)nc6c5)cc4)ccc3[nH]2)cc1` was 6.50. Same read-out and setting: for `Clc1cccc(Nc2nc(NCc3ccco3)c3ccccc3n2)c1` the value was 6.42; for `CCCCN(CCCC)S(=O)(=O)c1ccc(NC(=O)c2ccco2)cc1`, 6.42. As to `CCOc1ccc(N2C(N)=NC(N)=NC2(C)C)cc1`, the negative-log IC50 (pIC50) is 7.33. Same read-out and setting: the value for `S=C(NN=Cc1ccccn1)NC1CC2CC1C1C=CCC21` (stereo not drawn) was 7.59; that for `Cc1cccc2c1[nH]c1nc(SCC(C)C)nnc12` was 6.82; that for `CC(Oc1ccc(Cl)cc1Cl)c1nc(-c2ccc(NC(=O)c3cccs3)cc2)no1` (stereo not drawn) was 6.94. On the same count and under the same terms, for `Cc1cc(C)nc(N=C(N)Nc2cccc(O)c2)n1` the value was 6.82. Turning to `Cc1ccc(N2C(N)=NC(N)=NC2(C)C)cc1`, the negative-log IC50 (pIC50) is 8.00.

Turning to `N=c1c2c(n(Cc3ccc(Cl)cc3)c3c1CCC3)CCC2`, the pIC50 is 7.04.

Consider `Fc1ccc(-c2c[n+]3c(n2-c2ccccc2)SCC3)cc1`, for which the IC50 is > 4300 nM (inactive).

For `COc1cc(OC)c(NC(=O)C2c3ccccc3C(=O)N(C)C2c2ccc(OC)c(OC)c2)cc1Cl` (stereo not drawn), the IC50 is > 9130 nM (inactive). Regarding `Cc1ccc(-c2c[n+]3c(n2-c2ccc(C)cc2)CCCCC3)cc1`, the negative logarithm of the IC50 (pIC50) is 6.84.

Regarding `CCCCOc1ccc(N(C(C)=O)C2=C(N3CCOCC3)C(=O)c3ccccc3C2=O)cc1`, the pIC50 is 5.75. As to `Cc1[nH]c2ccccc2c(=O)c1Br`, the negative logarithm of the IC50 (pIC50) was 6.67. With `Clc1ncnc2ncn(Cc3ccccc3)c12`, the IC50 is > 10000 nM (inactive). With `CCCCn1c(N=Nc2c(O)[nH]c3ccccc23)nc2c1c(=O)[nH]c(=O)n2C`, the IC50 was > 10000 nM (inactive). Same read-out and setting: for `COc1cccc(OC)c1C(=O)Nn1c(-c2cccc(C)c2)nc2ccccc2c1=O` the value was > 10000 nM (inactive); for `O=C(c1cc2nc(-c3ccccc3)cc(C(F)(F)F)n2n1)N1CCN(Cc2ccccc2)CC1`, > 10000 nM (inactive). Turning to `CCN(CC)CCCNc1nc2cc(OC)c(OC)cc2c2nc(-c3ccccc3)nn12`, the negative-log IC50 (pIC50) was 6.49.

As to `CCOc1ccc(NC(=O)C(C)Sc2nc3ccccc3[nH]2)cc1` (stereo not drawn), the IC50 was > 10000 nM (inactive). On to `CCCC(=O)NC(c1ccc(Cl)cc1)c1ccc2cccnc2c1O` (stereo not drawn), for which the pIC50 was 6.72. The same measure, in the same setting: the value for `CCN1C(=O)N(CC)C(NNC(N)=S)C1NNC(N)=S` (stereo not drawn) was 7.16.

Consider `COc1ccc2nc(SCC(=O)Nc3cccc(NC(=O)CSc4nc5ccc(OC)cc5[nH]4)n3)[nH]c2c1`, for which the IC50 was > 9290 nM (inactive). Regarding `COc1ccc(Nc2nc(NCc3ccccc3)c3ccccc3n2)cc1`, the pIC50 is 6.52. Consider `CN(C)c1cc[n+](CC(=O)Nc2ccc(Cl)cc2)cc1`, for which the pIC50 is 6.23. As for `O=C1Nc2ccccc2C12Nc1ccccc1-c1nc3ccccc3n12` (stereo not drawn), the IC50 is > 10000 nM (inactive).

With `CCCCC(=O)NC(c1cccc([N+](=O)[O-])c1)c1ccc2cccnc2c1O` (stereo not drawn), the pIC50 is 6.35. With `CCOC(=O)c1c[nH]c2ccc(OC)cc2c1=O`, the pIC50 was 6.53 and 6.87. Consider `CC[n+]1c(/C=C/N(C)c2ccccc2)n(-c2ccccc2)c2ccc(-c3nc4ccccc4s3)cc21`, for which the negative logarithm of the IC50 (pIC50) was 7.85. As for `O=C(Nc1ccc(-c2nc3ccc(NC(=O)c4cccc([N+](=O)[O-])c4)cc3[nH]2)cc1)c1cccc([N+](=O)[O-])c1`, the IC50 was > 944 nM (inactive). Consider `C=CCN1C(=Cc2cc[n+](C)cc2)Sc2ccccc21`, for which the negative-log IC50 (pIC50) is 7.88.

Regarding `CCOC(=O)C1=C(C)NC2=C(C(=O)C(C(=O)OCC)C(c3ccc(OC)cc3)C2)C1c1ccc(OC)c(OC)c1` (stereo not drawn), the negative logarithm of the IC50 (pIC50) is 6.62. Regarding `COc1ccccc1Cc1nc2ccccc2nc1SCC(=O)Nc1cccc(C(F)(F)F)c1`, the IC50 was > 10000 nM (inactive).

In the case of `Cc1ccnc(NC(c2ccc3ccccc3c2)c2ccc3cccnc3c2O)c1` (stereo not drawn), the pIC50 was 6.25. Take `CCN(CC)c1ccc(N=Cc2ccc(Sc3nc4ccccc4s3)o2)cc1`: the IC50 is > 10000 nM (inactive). As to `O=C(Cn1ccc(=NCc2ccccc2)cc1)c1ccc(I)cc1`, the pIC50 is 6.08.

For `O=C1c2ccccc2C2=Nc3ccccc3SC(c3ccccc3F)C12` (stereo not drawn), the negative logarithm of the IC50 (pIC50) is 6.62. Still for that read-out and setting: for `CCCCN(CCCC)[P+](N(CCCC)CCCC)(N(CCCC)CCCC)N(CCCC)CCCC` the value was 7.94. With `CCN(CC)CCCN(Cc1cc2cc(OC)c(OC)cc2[nH]c1=O)C(=S)Nc1cccc(Cl)c1`, the pIC50 was 6.79. In the case of `COC(=O)c1ccc(C2C3=C(CC(c4ccco4)CC3=O)Nc3ccccc3N2C(=O)c2ccccc2)cc1` (stereo not drawn), the IC50 is > 4780 nM (inactive). Take `Cc1ccc(C2Sc3ccccc3NC3=C2C(=O)c2ccccc23)cc1` (stereo not drawn): the pIC50 is 6.56.

As to `Fc1ccc(Nc2nc(NCc3ccccc3)c3ccccc3n2)cc1`, the pIC50 is 5.42. For `c1ccc(-c2cc(N3CCN(c4ccccn4)CC3)nc(-c3ccccn3)n2)nc1`, the pIC50 was 7.76. As to `CC(C)(C)C1CCc2[nH]c3ccccc3c(=O)c2C1` (stereo not drawn), the negative-log IC50 (pIC50) is 7.01.

The values are drawn from PubChem BioAssay AID602156 (GNF / Scripps Winzeler lab, 2011).
